# Assays:
# prostasin [1] = conditions: rats infused i.v. for 24h; cited from earlier work
# prostasin [2] = conditions: treatment for 24 h; cited from earlier work
# [3] = system: cortical collecting duct of the rabbit kidney; conditions: Muto et al. 1993, cited from earlier work
# nasal epithelium = experiment: Mucus host-defence responses during nasal perfusion; assay type: in vivo, human
# Excerpt: Perfusion of the nasal epithelium with low chloride Ringer/HEPES buffer imposes a chemical gradient for chloride secretion, and therefore also provides a drive for fluid secretion.
# Mucus host-defence episodes were scored 1 to 3 on the basis of the number of features and the magnitude of the responses observed. FIG. 10 reports the score of the episodes recorded, and indicates the time of their occurrence in the perfusion protocol.
# [4] = system: cystic fibrosis transmembrane regulator (CFTR); experiment: Short circuit current recording of HBE cells in Ussing chambers (forskolin ΔIsc); assay type: cell-based, human; conditions: for effect on forskolin ΔIsc compared to control: 90 min pre-treatment
# Description: Differentiated HBE cells grown to confluence at an air-liquid interface for 15 to 29 days were used to study substances for ability to achieve long duration down regulation of the epithelial amiloride-sensitive sodium channel (ENaC).
# Step 1: Treatment with substance. For each group of cells treated with a substance, 30 μl of 100 times final concentration of substance was added to the 3 ml basolateral culture medium, mixed and 150 μl of the resultant basolateral fluid was transferred to the apical surface for 5 min. For non-treatment control groups of basolateral fluid with no added substance was transferred to the apical surface. After 5 min. equilibration the excess apical fluid was then transferred back to the basolateral side of the culture well.
# Step 2: Variable period of incubation with the substance. Dependent on the individual experiment the cells were returned to the 37° C. incubator for periods of 0 min. to 120 min.
# Step 3: Period of substance washout with fresh culture medium. For experiments to study the duration of a substance response the HBE cells on Snapwell inserts were washed with fresh culture medium (no added substance) at 37° C. and placed in fresh 6-well plates containing 3 ml fresh culture medium (no added substance) on the basolateral side. […]
# Step 5: Short circuit current (Isc) measurement. […] Silver/silver chloride electrodes (Costar Ltd., UK) were used to monitor Isc, which was recorded continuously throughout each experiment using AcqKnowledge III for MP100WSW data acquisition software (Biopac, Linton Instruments, UK). Transepithelial resistance (RT) was determined every minute by delivering a 5 mV pulse for 3 seconds and recording the change in ISS, over the 3 second period (ΔIsc). RT was calculated using the Ohm's law relationship RT=[V(5 mV)/ΔIsc].
# At 37 min. […] The magnitude of the CFTR Isc response to forskolin was determined for each culture by measuring the difference between Isc immediately prior to addition of forskolin and at plateau at approximately 6 min. following addition of the agent (Forskolin ΔIsc)
smiles,measurement,setting,value
N=C(N)c1ccc2cc(OC(=O)c3ccc(N=C(N)N)cc3)ccc2c1 [6-amidino-2-napthyl 4-guanidinobenzoate],levels of prostasin secreted in the urine,prostasin [1],reduced levels of prostasin
same,prostasin secretion into culture medium,prostasin [2],reduced prostasin secretion
same,effect on the rabbit kidney model,[3]; 10^−5 M,without effect
same,"change in transepithelial voltage, as share of that achievable by 5.10^−6 M amiloride",[3]; perfused at 10^−4 M,40%
same,onset of change in transepithelial voltage,[3]; perfusion of 10^−4 M,≤ 30 s
same,scores for episodes of mucus host-defence response (scored 1 to 3),nasal epithelium; perfusion of 3.10^−6 M in low chloride Ringer/HEPES buffer,Highest scores
same,mucus host-defence responses,nasal epithelium; perfusion with 3.10^−6 M in low chloride Ringer/HEPES buffer,stimulated episodes of mucus host-defence responses
same,effect on forskolin ΔIsc compared to control,[4]; 1 μM,no significant effect
same,"forskolin response, treatment vs control","[4]; 1 μM, pre-treatment time range 5 min to 60 min",No significant difference
same,effect on forskolin ΔIsc compared to control,[4]; dose range 30 nM to 3 μM,without effect
